{"source": "patent US10441564B2", "about": "“Fructose analogs and their combinations as anti-cancer agents” (priority 2016, dated 2019)", "key": {"[1]": {"system": "U937-SLC2A5 cells (overexpressing the fructose transporter SLC2A5)", "assay": "malignant proliferation of AML cells U937-SLC2A5", "type": "cell-based", "conditions": "6 mM fructose or 6 mM fructose+0.75 mM glucose"}, "[2]": {"system": "U937-SLC2A5 cells (overexpressing the fructose transporter SLC2A5)", "assay": "colony formation of U937-SLC2A5 cells", "type": "cell-based", "conditions": "6 mM fructose or 6 mM fructose+0.75 mM glucose"}, "[3]": {"system": "U937-SLC2A5 cells (overexpressing the fructose transporter SLC2A5)", "assay": "cell migration of U937-SLC2A5 cells", "type": "cell-based", "conditions": "6 mM fructose or 6 mM fructose+0.75 mM glucose"}, "[4]": {"system": "U937", "assay": "proliferation of AML cells U937", "type": "cell-based", "experimental": "(§1) In cell culture conditions with 6 mM fructose or 6 mM fructose+0.75 mM glucose, 2,5-AM could inhibit the proliferation of four AML cells, including U937, OCI-AML3, HL-60 and K562 cells."}, "[5]": {"system": "OCI-AML3", "assay": "proliferation of AML cells OCI-AML3", "type": "cell-based", "experimental": "as §1"}, "[6]": {"system": "HL-60", "assay": "proliferation of AML cells HL-60", "type": "cell-based", "experimental": "as §1"}, "[7]": {"system": "K562", "assay": "proliferation of AML cells K562", "type": "cell-based"}, "[8]": {"system": "AML mice (murine leukemic cells with AML1-ETO and mutated C-KIT)", "assay": "AML model mice", "type": "in vivo, BALB/c female mice", "experimental": "AML mice were generated using a previously reported procedure (Wang et al., 2011) with minor modifications. About 1×10^5 GFP-positive murine leukemic cells (splenic cells) with AML1-ETO and mutated C-KIT were injected into the tail vein of each sublethally irradiated (3.5 Gy), 8 week old BALB/c female mice. On day 5 after inoculation of AML cells, 2,5-AM was injected intraperitoneally at a dose of 150 mg/kg/day for continuous administration to mice. Control group AML mice were given saline injection according to the same dose and method.\nchemotherapeutic drug cytarabine on the treatment of AML model mice (Ara-C) was administered intraperitoneally at a dose of 25 mg/kg/day on the third day in the AML model mice (see example 3) for 3 days after AML cell inoculation. At the same time, mice were intraperitoneally injected with 2,5 AM at a dose of 150 mg/kg/day on day 5 after AML cell inoculation, until mice were dead. (2) Ara-C alone group: In the AML model mice of Example 3, Ara-C was injected intraperitoneally at a dose of 25 mg/kg/day on the third day after AML cell inoculation for 3 days."}, "[9]": {"system": "PANC-1", "assay": "fructose-induced proliferation of pancreatic cancer cells PANC-1", "type": "cell-based", "conditions": "6 mM fructose culture"}, "[10]": {"system": "CFPAC-1", "assay": "fructose-induced proliferation of pancreatic cancer cells CFPAC-1", "type": "cell-based", "conditions": "6 mM fructose culture"}, "[11]": {"system": "BxPC-3", "assay": "fructose-induced proliferation of pancreatic cancer cells BxPC-3", "type": "cell-based", "conditions": "6 mM fructose culture"}, "[12]": {"system": "HCT-15", "assay": "malignant proliferation of colorectal cancer cells HCT-15", "type": "cell-based", "conditions": "6 mM fructose culture"}, "[13]": {"system": "HCT-116", "assay": "malignant proliferation of colorectal cancer cells HCT-116", "type": "cell-based", "conditions": "6 mM fructose culture"}, "[14]": {"system": "AML cells", "assay": "fructose utilization in AML cells in vitro", "type": "cell-based", "conditions": "in vitro cell experiments", "text": "Enhanced fructose metabolism mediated by GLUTS exacerbates the malignant phenotype of AML cells, including increased cell proliferation, enhanced colony formation, and increased mobility and infiltration of AML cells (FIG. 3A-3D). […] Additionally 2,5-AM can kill AML cells in concert with conventional chemotherapeutic agents (FIG. 7A-7G)."}, "[15]": {"system": "cancer cells", "assay": "fructose and glucose utilization by cancer cells", "type": "cell-based", "text": "The present inventors have discovered, for the first time, the important role of GLUTS-mediated fructose metabolism in the malignant progression of cancer, and the close relationship with the prognosis of the cancer patients, through extensive and in-depth research and clinical data analysis. […] Furthermore, 2,5-AM may reverse the malignant phenotypes of AML cells by synergizing with conventional chemotherapeutic cytarabine or glucose analogue 2-deoxy-glucose (2-DG). […] Moreover, 2,5-AM and cytarabine in AML mice also have a significant synergistic effect. Through the above work, the present inventors have determined the administration of 2,5-AM to AML, pancreatic cancer, and colorectal cancer, including the dosage, the route of administration and the duration of administration; and the combined use of 2,5-AM and conventional chemotherapeutic agents or 2-DG methods for cancer treatment."}, "[16]": {"conditions": "6 mM fructose or 6 mM fructose+0.75 mM glucose"}, "[17]": {"conditions": "150 mg/kg/day intraperitoneally from day 5, compared with saline control group"}}, "note": "“Also recorded” adds a separate entry of the source."}
{"smiles": "OC[C@H]1O[C@H](CO)[C@@H](O)[C@@H]1O", "note": "[2,5-AM, 2,5-anhydro-D-mannitol]", "values": [{"measurement": "malignant proliferation of AML cells U937-SLC2A5", "setting": "[1]", "value": "significantly inhibited"}, {"measurement": "colony formation", "setting": "[2]", "value": "significantly inhibited"}, {"measurement": "cell migration", "setting": "[3]", "value": "significantly inhibited"}, {"measurement": "malignant proliferation of U937", "setting": "[4]; [16]", "value": "significantly inhibited; also recorded: could inhibit"}, {"measurement": "cell proliferation of U937", "setting": "[4]; 6 mM glucose", "value": "almost unaffected"}, {"measurement": "malignant proliferation of OCI-AML3", "setting": "[5]; [16]", "value": "significantly inhibited; also recorded: could inhibit"}, {"measurement": "cell proliferation of OCI-AML3", "setting": "[5]; 6 mM glucose", "value": "almost unaffected"}, {"measurement": "malignant proliferation of HL-60", "setting": "[6]; [16]", "value": "significantly inhibited; also recorded: could inhibit"}, {"measurement": "cell proliferation of HL-60", "setting": "[6]; 6 mM glucose", "value": "almost unaffected"}, {"measurement": "malignant proliferation of K562", "setting": "[7]; [16]", "value": "significantly inhibited; also recorded: could inhibit"}, {"measurement": "cell proliferation of K562", "setting": "[7]; 6 mM glucose", "value": "almost unaffected"}, {"measurement": "bone marrow leukemia cells", "setting": "[8]; [17]", "value": "significantly inhibited"}, {"measurement": "hemoglobin", "setting": "[8]; [17]", "value": "significantly increased"}, {"measurement": "overall survival of mice", "setting": "[8]; [17]", "value": "significantly prolonged"}, {"measurement": "peripheral blood leukemia cells", "setting": "[8]; [17]", "value": "significantly inhibited"}, {"measurement": "peripheral blood red blood cell count", "setting": "[8]; [17]", "value": "significantly increased"}, {"measurement": "peripheral white blood cells", "setting": "[8]; [17]", "value": "significantly inhibited"}, {"measurement": "platelet count", "setting": "[8]; [17]", "value": "significantly increased"}, {"measurement": "spleen enlargement", "setting": "[8]; [17]", "value": "significantly relieved"}, {"measurement": "fructose utilization by AML cells in vivo", "setting": "[8]; mouse in vivo experiments", "value": "significantly inhibited"}, {"measurement": "proliferation of PANC-1", "setting": "[9]", "value": "significantly inhibited"}, {"measurement": "proliferation of CFPAC-1", "setting": "[10]", "value": "significantly inhibited"}, {"measurement": "proliferation of BxPC-3", "setting": "[11]", "value": "significantly inhibited"}, {"measurement": "malignant proliferation of HCT-15", "setting": "[12]", "value": "significantly inhibited"}, {"measurement": "malignant proliferation of HCT-116", "setting": "[13]", "value": "significantly inhibited"}, {"measurement": "fructose utilization in AML cells", "setting": "[14]", "value": "blocked"}, {"measurement": "fructose utilization by cancer cells", "setting": "[15]", "value": "competitively inhibits"}, {"measurement": "glucose utilization", "setting": "[15]", "value": "little effect"}]}
